tested on: Abutilon theophrasti; assay: Pre-emergence herbicidal action, ABUTH; type: in vivo; set-up: key to Herbicidal action against ABUTH: % activity: 100 = plants have died, 0 = like control plants; details: comparative experiment, 20 g of a.i./ha
Procedure, shortened: (§1)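 Application took place on the soil surface immediately after sowing into sandy loam, using aqueous WP or EC preparations with 0.2% wetting agent. Visual percent scoring followed 3 weeks later, untreated pots serving as reference.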

Structure (SMILES)	Herbicidal action against ABUTH
CCSCc1c(C(F)(F)F)ccc(C(=O)Nc2nnnn2C)c1Cl [Example 1-299]	90

same assay, conditions: comparative experiment, 80 g of a.i./ha

Structure (SMILES)	Herbicidal action against ABUTH
CC[S+]([O-])Cc1c(C(F)(F)F)ccc(C(=O)Nc2nnnn2C)c1Br (racemic) [Example 1-384]	100
CCS(=O)(=O)Cc1c(C(F)(F)F)ccc(C(=O)Nc2nnnn2C)c1Br [Example 1-385]	100

same assay, conditions: dosage 320 g/ha

Structure (SMILES)	herbicidal action ABUTH [%]
CCCn1nnnc1NC(=O)c1ccc(I)c(C[S+](C)[O-])c1Cl (stereo not drawn) [Example 3-363]	100

same assay, conditions: dosage 320 g/ha, scored visually after 3 weeks vs untreated controls (100% = plants have died)

Structure (SMILES)	herbicidal activity ABUTH [%]
CCn1nnnc1NC(=O)c1ccc(C(F)(F)F)c(C[S+]([O-])CC)c1Cl (stereo not drawn) [Example 2-300]	100
CCn1nnnc1NC(=O)c1ccc(C(F)F)c(C[S+]([O-])CC)c1Cl (stereo not drawn) [Example 2-324]	100
CCS(=O)(=O)Cc1c(C(F)F)ccc(C(=O)Nc2nnnn2C)c1Cl [Example 1-325]	100
CCn1nnnc1NC(=O)c1ccc(C(F)(F)F)c(CSC)c1Cl [Example 2-296]	100
CCn1nnnc1NC(=O)c1ccc(C(F)(F)F)c(CS(=O)(=O)CC)c1Br [Example 2-385]	100
CCSCc1c(C(F)(F)F)ccc(C(=O)Nc2nnnn2CC)c1Cl [Example 2-299]	100
CC[S+]([O-])Cc1c(C(F)(F)F)ccc(C(=O)Nc2nnnn2C)c1Br (racemic) [Example 1-384]	100
CCSCc1c(C(F)(F)F)ccc(C(=O)Nc2nnnn2C)c1Cl [Example 1-299]	100
CCS(=O)(=O)Cc1c(C(F)(F)F)ccc(C(=O)Nc2nnnn2C)c1Br [Example 1-385]	100

tested on: Hordeum murinum; assay: Pre-emergence herbicidal action, HORMU; type: in vivo; details: dosage 320 g/ha
From the text: (§2) 1. Pre-Emergence Herbicidal Action Against Harmful Plants Seeds of monocotyledonous and dicotyledonous weed plants and crop plants are laid out in sandy loam soil in wood-fiber pots and covered with soil. The compounds of the invention, formulated in the form of wettable powders (WP) or as emulsion concentrates (EC), are then applied to the surface of the covering soil in the form of an aqueous suspension or emulsion at a water application rate equating to 600 to 800 l/ha, with addition of 0.2% wetting agent. After the treatment, the pots are placed in a greenhouse and kept under good growth conditions for the trial plants. The damage to the test plants is scored visually after a test period of 3 weeks by comparison with untreated controls (herbicidal activity in percent (%): 100% activity=the plants have died, 0% activity=like control plants). […] The tables below illustrate, in an exemplary manner, the […] herbicidal action of the compounds according to the invention, the herbicidal activity being stated in percent. [table] In the experiments that follow, herbicidal action of numerous inventive compounds and the known compounds that are structurally closest from D1 (WO 2012/028579 A1) and D2 (WO 2018/202535 A1) were compared under the above-specified conditions by the pre-emergence and post-emergence method. The example numbers given in the tables relate to the compounds disclosed in the respective documents. In addition to the compounds disclosed in D1 and D2, the following compounds V-1 to V-14 that are encompassed by D1 or D2 but are not compounds specified therein were used in the comparative experiments: • V-1: 2-(methylsulfanyl)-3-(methylsulfinyl)-N-(1-methyl-1H-tetrazol-5-yl)-4-(trifluoromethyl)benzamide • V-2: 2-(methylsulfanyl)-3-(methylsulfonyl)-N-(1-methyl-1H-tetrazol-5-yl)-4-(trifluoromethyl)benzamide • V-3: 2,3-bis(ethylsulfanyl)-N-(1-methyl-1H-tetrazol-5-yl)-4-(trifluoromethyl)benzamide • V-4: 2-chloro-3-(ethylsulfanyl)-N-(1-methyl-1H-tetrazol-5-yl)-4-(trifluoromethyl)benzamide • V-5: 2-chloro-4-iodo-3-(methylsulfanyl)-N-(1-methyl-1H-tetrazol-5-yl)benzamide • V-6: 2-chloro-4-iodo-3-(methylsulfinyl)-N-(1-methyl-1H-tetrazol-5-yl)benzamide • V-7: 2-chloro-4-iodo-3-(methylsulfonyl)-N-(1-methyl-1H-tetrazol-5-yl)benzamide • V-8: 2-bromo-3-(methylsulfanyl)-N-(1-methyl-1H-tetrazol-5-yl)-4-(trifluoromethyl)benzamide • V-9: 2-bromo-3-(methylsulfinyl)-N-(1-methyl-1H-tetrazol-5-yl)-4-(trifluoromethyl)benzamide • V-10: 2-bromo-3-(methylsulfonyl)-N-(1-methyl-1H-tetrazol-5-yl)-4-(trifluoromethyl)benzamide • V-11: 2-bromo-3-(ethylsulfanyl)-N-(1-methyl-1H-tetrazol-5-yl)-4-(trifluoromethyl)benzamide • V-12: 2-bromo-3-(ethylsulfinyl)-N-(1-methyl-1H-tetrazol-5-yl)-4-(trifluoromethyl)benzamide • V-13: 2-bromo-3-(ethylsulfonyl)-N-(1-methyl-1-1H-tetrazol-5-yl)-4-(trifluoromethyl)benzamide • V-14: 2-cyclopropyl-3-(ethylsulfanyl)-N-(1-methyl-1H-tetrazol-5-yl)-4-(trifluoromethyl)benzamide Herbicidal Pre-Emergence Action: […]

Structure (SMILES)	herbicidal action HORMU [%]
CCCn1nnnc1NC(=O)c1ccc(I)c(C[S+](C)[O-])c1Cl (stereo not drawn) [Example 3-363]	100

same assay, conditions: dosage 320 g/ha, scored visually after 3 weeks vs untreated controls (100% = plants have died)

Structure (SMILES)	herbicidal activity HORMU [%]
CCn1nnnc1NC(=O)c1ccc(C(F)(F)F)c(C[S+]([O-])CC)c1Cl (stereo not drawn) [Example 2-300]	100
CCn1nnnc1NC(=O)c1ccc(C(F)F)c(C[S+]([O-])CC)c1Cl (stereo not drawn) [Example 2-324]	100

tested on: Lolium multiflorum; assay: Pre-emergence herbicidal action, LOLMU; type: in vivo; details: dosage 320 g/ha, scored visually after 3 weeks vs untreated controls (100% = plants have died)
From the text: as §2

Structure (SMILES)	herbicidal activity LOLMU [%]
CCS(=O)(=O)Cc1c(C(F)F)ccc(C(=O)Nc2nnnn2C)c1Cl [Example 1-325]	100
CCn1nnnc1NC(=O)c1ccc(C(F)(F)F)c(CSC)c1Cl [Example 2-296]	100
CCn1nnnc1NC(=O)c1ccc(C(F)(F)F)c(CS(=O)(=O)CC)c1Br [Example 2-385]	100
CCSCc1c(C(F)(F)F)ccc(C(=O)Nc2nnnn2CC)c1Cl [Example 2-299]	100
CC[S+]([O-])Cc1c(C(F)(F)F)ccc(C(=O)Nc2nnnn2C)c1Br (racemic) [Example 1-384]	100
CCSCc1c(C(F)(F)F)ccc(C(=O)Nc2nnnn2C)c1Cl [Example 1-299]	100
CCS(=O)(=O)Cc1c(C(F)(F)F)ccc(C(=O)Nc2nnnn2C)c1Br [Example 1-385]	100

tested on: Lolium rigidum; assay: Pre-emergence herbicidal action, LOLRI; type: in vivo; details: dosage 320 g/ha, scored visually after 3 weeks vs untreated controls (100% = plants have died)
From the text: as §2

Structure (SMILES)	herbicidal activity LOLRI [%]
CCn1nnnc1NC(=O)c1ccc(C(F)(F)F)c(C[S+]([O-])CC)c1Cl (stereo not drawn) [Example 2-300]	100
CCn1nnnc1NC(=O)c1ccc(C(F)F)c(C[S+]([O-])CC)c1Cl (stereo not drawn) [Example 2-324]	90

tested on: Stellaria media; assay: Pre-emergence herbicidal action, STEME; type: in vivo; set-up: key to Herbicidal action against STEME: % activity: 100 = plants have died, 0 = like control plants; details: comparative experiment, 80 g of a.i./ha
Procedure, shortened: as §1

Structure (SMILES)	Herbicidal action against STEME
CC[S+]([O-])Cc1c(C(F)(F)F)ccc(C(=O)Nc2nnnn2C)c1Br (racemic) [Example 1-384]	100

same assay, conditions: dosage 320 g/ha

Structure (SMILES)	herbicidal action STEME [%]
CCCn1nnnc1NC(=O)c1ccc(I)c(C[S+](C)[O-])c1Cl (stereo not drawn) [Example 3-363]	100

same assay, conditions: dosage 320 g/ha, scored visually after 3 weeks vs untreated controls (100% = plants have died)

Structure (SMILES)	herbicidal activity STEME [%]
CCn1nnnc1NC(=O)c1ccc(C(F)(F)F)c(C[S+]([O-])CC)c1Cl (stereo not drawn) [Example 2-300]	100
CCn1nnnc1NC(=O)c1ccc(C(F)F)c(C[S+]([O-])CC)c1Cl (stereo not drawn) [Example 2-324]	100
CCS(=O)(=O)Cc1c(C(F)F)ccc(C(=O)Nc2nnnn2C)c1Cl [Example 1-325]	100
CCn1nnnc1NC(=O)c1ccc(C(F)(F)F)c(CSC)c1Cl [Example 2-296]	100
CCn1nnnc1NC(=O)c1ccc(C(F)(F)F)c(CS(=O)(=O)CC)c1Br [Example 2-385]	100
CCSCc1c(C(F)(F)F)ccc(C(=O)Nc2nnnn2CC)c1Cl [Example 2-299]	100
CC[S+]([O-])Cc1c(C(F)(F)F)ccc(C(=O)Nc2nnnn2C)c1Br (racemic) [Example 1-384]	100
CCSCc1c(C(F)(F)F)ccc(C(=O)Nc2nnnn2C)c1Cl [Example 1-299]	100
CCS(=O)(=O)Cc1c(C(F)(F)F)ccc(C(=O)Nc2nnnn2C)c1Br [Example 1-385]	90

tested on: Cyperus esculentus; assay: Post-emergence herbicidal action, CYPES; type: in vivo; set-up: key: % herbicidal action vs untreated; 100 = plants died, 0 = like control; details: Dosage 80 g/ha
Procedure, shortened: (§3)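 One-leaf-stage weeds, raised from seed in greenhouse sandy loam, received a single foliar spray of compound as wettable powder or emulsion concentrate with 0.2% wetting agent added. Growth continued under optimal conditions for about 3 weeks before percent damage was scored by eye against controls.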

Structure (SMILES)	herbicidal action CYPES
CCS(=O)(=O)Cc1c(C(F)F)ccc(C(=O)Nc2nnnn2C)c1Cl [Example 1-325]	80

same assay, conditions: comparative experiment, post-emergence, 20 g of a.i./ha

Structure (SMILES)	Herbicidal action against CYPES
CCS(=O)(=O)Cc1c(C(F)(F)F)ccc(C(=O)Nc2nnnn2C)c1Br [Example 1-385]	60

same assay, conditions: post-emergence, dosage 80 g/ha

Structure (SMILES)	herbicidal action CYPES [%]
CCn1nnnc1NC(=O)c1ccc(C(F)(F)F)c(CSC)c1Cl [Example 2-296]	80
CCn1nnnc1NC(=O)c1ccc(C(F)(F)F)c(CS(=O)(=O)CC)c1Br [Example 2-385]	90
CCSCc1c(C(F)(F)F)ccc(C(=O)Nc2nnnn2CC)c1Cl [Example 2-299]	90
CC[S+]([O-])Cc1c(C(F)(F)F)ccc(C(=O)Nc2nnnn2C)c1Br (racemic) [Example 1-384]	90
CCSCc1c(C(F)(F)F)ccc(C(=O)Nc2nnnn2C)c1Cl [Example 1-299]	80
CCS(=O)(=O)Cc1c(C(F)(F)F)ccc(C(=O)Nc2nnnn2C)c1Br [Example 1-385]	80

tested on: Veronica persica; assay: Post-emergence herbicidal action, VERPE; type: in vivo; set-up: key: % herbicidal action vs untreated; 100 = plants died, 0 = like control; details: Dosage 80 g/ha
Procedure, shortened: as §3

Structure (SMILES)	herbicidal action VERPE
CCS(=O)(=O)Cc1c(C(F)F)ccc(C(=O)Nc2nnnn2C)c1Cl [Example 1-325]	100
CCCn1nnnc1NC(=O)c1ccc(I)c(C[S+](C)[O-])c1Cl (stereo not drawn) [Example 3-363]	100

same assay, conditions: comparative experiment, post-emergence, 5 g of a.i./ha

Structure (SMILES)	Herbicidal action against VERPE
CCSCc1c(C(F)(F)F)ccc(C(=O)Nc2nnnn2C)c1Cl [Example 1-299]	100

same assay, conditions: comparative experiment, post-emergence, 20 g of a.i./ha

Structure (SMILES)	Herbicidal action against VERPE
CC[S+]([O-])Cc1c(C(F)(F)F)ccc(C(=O)Nc2nnnn2C)c1Br (racemic) [Example 1-384]	100
CCS(=O)(=O)Cc1c(C(F)(F)F)ccc(C(=O)Nc2nnnn2C)c1Br [Example 1-385]	100

same assay, conditions: post-emergence, dosage 80 g/ha

Structure (SMILES)	herbicidal action VERPE [%]
CCn1nnnc1NC(=O)c1ccc(C(F)(F)F)c(C[S+]([O-])CC)c1Cl (stereo not drawn) [Example 2-300]	100
CCn1nnnc1NC(=O)c1ccc(C(F)F)c(C[S+]([O-])CC)c1Cl (stereo not drawn) [Example 2-324]	100
CCn1nnnc1NC(=O)c1ccc(C(F)(F)F)c(CSC)c1Cl [Example 2-296]	100
CCn1nnnc1NC(=O)c1ccc(C(F)(F)F)c(CS(=O)(=O)CC)c1Br [Example 2-385]	100
CCSCc1c(C(F)(F)F)ccc(C(=O)Nc2nnnn2CC)c1Cl [Example 2-299]	100
CC[S+]([O-])Cc1c(C(F)(F)F)ccc(C(=O)Nc2nnnn2C)c1Br (racemic) [Example 1-384]	100
CCSCc1c(C(F)(F)F)ccc(C(=O)Nc2nnnn2C)c1Cl [Example 1-299]	100
CCS(=O)(=O)Cc1c(C(F)(F)F)ccc(C(=O)Nc2nnnn2C)c1Br [Example 1-385]	100
